Bounds are passed on as bounds.

The subject of one data set is CLL-B cells. Briefly: Caspase inhibitor effect on human CD40L transfection of CLL-B cells. Conditions: 100 μm inhibitor in culture medium, 24 hour post transfection. Type of data set: cell-based. As for the experimental part: Caspase inhibitor effect on human CD40L transfection of CLL-B cells was investigated. CLL-B cells (1.4×10^8 cells/mL) were electroporated by four 400 μs pulses at indicated electric fields in the present of DNA plasmid (200 μg/mL) coding for hCD40L. Following a 20 minute incubation at 37° C., cells were cultured in medium either with (+I) or without (−I) caspase inhibitor (Boc-Asp-FMK, 100 μm). hCD40L, expression was analyzed 24 hour post transfection by flow cytometry with antibodies against hCD40L conjugate-labeled with Cychrome.

The subject of data set [1] is Human platelets. As to the kind of experiment: Loading of platelets with fluorescent marker by flow electroporation. Type of data set: cell-based. How it is done: Efficacy is expressed as the percentage of cells that took up fluorescent markers (calcein or albumin+fluorescein). “Activity” was determined by measuring biologic functions, such as secretion or aggregation (for MaxCyte's application, any detectable level will probably suffice). “Survival” is the circulating half-life in an animal model. FIGS. 23A and 23B show scatter plots from a flow cytometer. Control (FIG. 23A) was incubated in a dilute solution of the fluorescent dye, calcein, for approximately 1 hour. The test sample (FIG. 23B) was suspended in the same dye solution, but was run through the electroporation device. Similar results were obtained using fluoresceinated albumin.

The subject of data set [2] is Human platelets. Briefly: Activity (secretion or aggregation) of loaded platelets. In kind it is cell-based. As for the experimental part: Efficacy is expressed as the percentage of cells that took up fluorescent markers (calcein or albumin+fluorescein). “Activity” was determined by measuring biologic functions, such as secretion or aggregation (for MaxCyte's application, any detectable level will probably suffice). “Survival” is the circulating half-life in an animal model.

A further data set relates to platelets. As to the kind of experiment: Collagen stimulation of calcein-loaded platelets. The conditions noted are these: platelets electroporated with calcein, collagen stimulus. Type of data set: cell-based. As for the experimental part: Platelets were treated in accordance with the present invention in the presence of a marker dye, calcein, then stimulated with increasing doses of collagen, a physiologic stimulant for platelets. […] FIGS. 24A and 24B show platelets that had been washed but otherwise not treated (Untreated[N]}), platelets that were incubated with the fluorescent marker calcein (calcein control) and platelets electroporated with calcein (electroporated) were subsequently stimulated with the physiologic stimulus, collagen.

Data set [3] can be described thus: Organ distribution of calcein-loaded platelets. Conditions: rabbits, organs harvested within 1 half-life. In kind it is in vivo, rabbit. From the text: In another series of studies, platelets loaded with calcein were infused into the rabbits and major organs harvested within 1 half-life.
A further data set addresses hemoglobin (Homo sapiens, UniProt P68871). The conditions noted are these: cited from earlier work.
In the next data set the test system is resting Lymphocytes. Briefly: Electroporation (transfection) of resting lymphocytes. Conditions: Static. In kind it is cell-based, human. How it is done: Primary lymphocytes were suspended in B&K buffer (125 mM KCl, 15 mM NaCl, 1.2 mM MgCl2, 3 mM glucose, 25 mM Hepes, pH 7.4) cell concentration was set from 1×10^7 cells/mL to 6×10^8 cells/mL together with DNA plasmid from 50 μg/mL to 1 mg/mL. DNA concentration was 50 ug/mL–1000 ug/mL. Electroporation was performed at 2.3 kV/cm, 400 μs, 4 pulses for small volume experiments (15 μl) or 2.2 kV/cm, 1.6 ms, 1 pulse for large volume experiments (0.5 ml–2 ml) was performed under static conditions at room temperature. […] Cells were cultured in culture medium for various periods (up to 72 hours) and the transfection efficiency was analyzed.
Seven transgenes (Ds-Red, eGFP, βGal, hEndostatin, HEPO, hIFNα, hIL-2) were tested in these experiments. […] When pCMV-Ds-Red or pCMV-EGFP was used, the percentage of the fluorescent cells was counted, by FACS or by manual counting under phase contrast and fluorescence microscope, as the transfection efficiency. […] When pCMV-Endostatin was used, the Endostatin concentration in the supernatant was analyzed by ELISA kit from Cytimmune Sciences, Inc. (College Park, Md.). For pCMV-EPO electroporation, the erythropoietin concentration in the supernatant was analyzed by R&D ELISA kit (Minneapolis, Minn.). […]

hemoglobin, sequence (P68871 2-147 limits assumed): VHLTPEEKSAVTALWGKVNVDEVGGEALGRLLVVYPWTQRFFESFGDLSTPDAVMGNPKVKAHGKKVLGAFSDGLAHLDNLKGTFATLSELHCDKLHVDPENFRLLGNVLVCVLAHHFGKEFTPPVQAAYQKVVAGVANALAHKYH
hemoglobin, sequence (P69905 2-142 partner limits assumed): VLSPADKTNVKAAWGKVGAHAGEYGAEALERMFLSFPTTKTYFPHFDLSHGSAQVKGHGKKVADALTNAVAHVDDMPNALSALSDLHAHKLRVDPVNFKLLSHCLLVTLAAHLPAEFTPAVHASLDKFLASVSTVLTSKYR

Consider `CC(C)(C)OC(=O)NC(CC(=O)O)C(=O)CF` (stereo not drawn) [Boc-Asp-FMK], for which, in the data set with CLL-B cells, the hCD40L expression level result was “improves” and the “hCD40L expression: percentage of expressed cells” value is “improves”.

Turning to `O=C(O)CN(CC(=O)O)Cc1cc2c(cc1O)Oc1cc(O)c(CN(CC(=O)O)CC(=O)O)cc1C21OC(=O)c2ccccc21` [CALCEIN, calcein], in the data set on Human platelets [1], the “Efficacy (% of cells with marker)” value was 80+ % of cells with marker. Also, in the data set with Human platelets [2], the “Activity (% of control)” value was 40–60 % of control. For the same molecule, in the data set with platelets, the “collagen-stimulated Calcein release” value is on record as “did not release the dye”. Besides, the “organ distribution of loaded platelets” value in data set [3] is on record as “found in multiple organs”.

Turning to `O=P(O)(O)O[C@H]1[C@H](OP(=O)(O)O)[C@@H](OP(=O)(O)O)[C@H](OP(=O)(O)O)[C@@H](OP(=O)(O)O)[C@H]1OP(=O)(O)O` [IHP, inositol hexaphosphate], the “affinity to hemoglobin relative to DPG” value on hemoglobin (higher than DPG) was 1000 fold. The P50 of hemoglobin on hemoglobin (pH 7.4, 37° C.) is listed as ≤ 96.4 mm Hg.

For βGal, in the data set on resting Lymphocytes, the “Efficiency (% of + cells)” value was 15% and the Viability is recorded as 40%.

Values taken from patent publication US7186559B2, “Apparatus and method for electroporation of biological samples” (Maxcyte, Inc., priority 2001, dated 2007).
